This is an account of results in patent publication US12528791B2 (priority 2019, dated 2026).

One assay concerns the target T1, THR-β/RXR-α (Homo sapiens, UniProt P10828).
T1 sequence (P10828 202-461 limits assumed): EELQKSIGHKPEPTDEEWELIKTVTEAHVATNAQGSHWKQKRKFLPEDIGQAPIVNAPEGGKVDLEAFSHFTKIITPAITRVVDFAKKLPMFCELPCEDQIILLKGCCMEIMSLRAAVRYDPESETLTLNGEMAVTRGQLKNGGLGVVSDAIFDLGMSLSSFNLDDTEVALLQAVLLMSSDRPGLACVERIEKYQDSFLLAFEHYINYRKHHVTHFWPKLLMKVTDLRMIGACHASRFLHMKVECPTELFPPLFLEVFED
T1 sequence (P19793 225-462 partner limits assumed): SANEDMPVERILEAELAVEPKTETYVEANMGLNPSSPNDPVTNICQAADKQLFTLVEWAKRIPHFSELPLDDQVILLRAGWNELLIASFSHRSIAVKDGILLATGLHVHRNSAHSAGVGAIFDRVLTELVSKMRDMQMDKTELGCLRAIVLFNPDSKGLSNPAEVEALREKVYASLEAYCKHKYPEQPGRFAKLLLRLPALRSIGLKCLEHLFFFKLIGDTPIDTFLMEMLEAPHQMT
T1 sequence (Q15596 679-703 partner limits assumed): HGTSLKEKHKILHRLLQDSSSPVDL
In kind it is biochemical. The note with it: RXR heterodimer assay; compound activity normalized to T3 for THR-β/RXR-α and THR-α/RXR-α.

The target of a further assay is T2, TR beta-LBD (Homo sapiens, UniProt P10828).
T2 sequence (P10828 217-461 limits assumed): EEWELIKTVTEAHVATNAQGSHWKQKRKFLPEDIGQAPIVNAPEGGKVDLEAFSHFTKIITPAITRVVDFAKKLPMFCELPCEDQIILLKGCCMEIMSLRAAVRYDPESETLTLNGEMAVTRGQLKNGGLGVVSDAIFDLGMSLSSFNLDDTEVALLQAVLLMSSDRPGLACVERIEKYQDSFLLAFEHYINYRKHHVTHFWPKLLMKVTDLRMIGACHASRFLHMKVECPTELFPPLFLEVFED
In kind it is biochemical. The note with it: TR-FRET assay; THR beta over THR alpha, derived from T3-selectivity normalized data. For orientation: Time-resolved FRET reads energy transfer from a long-lived donor to a nearby acceptor.

A value given as a limit tells only on which side of the number the result lay.

Regarding `N#Cc1nn(-c2cc(Cl)c(Oc3ccc4ncccc4c3)c(Cl)c2)c(=O)[nH]c1=O` [Example 13, 2-(3,5-dichloro-4-(quinolin-6-yloxy)phenyl)-3,5-dioxo-2,3,4,5-tetrahydro-1,2,4-triazine-6-carbonitrile], the THRβ-Selectivity at THR-β/RXR-α is on record as 5.5; on TR beta-LBD it was 3.7.

As to `COc1n[nH]c2ccc(Oc3c(Cl)cc(-n4nc(C#N)c(=O)[nH]c4=O)cc3Cl)cc12` [Example 9, 2-(3,5-dichloro-4-((3-methoxy-1H-indazol-5-yl)oxy)phenyl)-3,5-dioxo-2,3,4,5-tetrahydro-1,2,4-triazine-6-carbonitrile], the THRβ-Selectivity on THR-β/RXR-α was determined as 10.3; at TR beta-LBD, 8.0.

In the case of `Cc1n[nH]c2ncc(Oc3c(Cl)cc(NC(=O)c4noc(=O)[nH]4)cc3Cl)cc12` [Example 6, N-(3,5-dichloro-4-((3-methyl-1H-pyrazolo[3,4-b]pyridin-5-yl)oxy)phenyl)-5-oxo-4,5-dihydro-1,2,4-oxadiazole-3-carboxamide], the THRβ-Selectivity was 5.6 on THR-β/RXR-α and greater than 18.5 on TR beta-LBD.

For the compound `CCc1n[nH]c2ccc(Oc3c(Cl)cc(-c4n[nH]c(=O)[nH]c4=O)cc3Cl)cc12` [Example 2, 6-(3,5-dichloro-4-((3-ethyl-1H-indazol-5-yl)oxy)phenyl)-1,2,4-triazine-3,5(2H,4H)-dione], the THRβ-Selectivity at THR-β/RXR-α turned out to be 3.6; at TR beta-LBD, 28.0.

As for `Cc1ccnc2ccc(Oc3c(Cl)cc(-n4nc(C#N)c(=O)[nH]c4=O)cc3Cl)cc12` [Example 15, 2-(3,5-dichloro-4-((4-methylquinolin-6-yl)oxy)phenyl)-3,5-dioxo-2,3,4,5-tetrahydro-1,2,4-triazine-6-carbonitrile], the THRβ-Selectivity on THR-β/RXR-α stood at 15.4; at TR beta-LBD it was 15.9.

On to `Cc1cnc2ccc(Oc3c(Cl)cc(-n4nc(C#N)c(=O)[nH]c4=O)cc3Cl)cc2c1` [Example 16, 2-(3,5-dichloro-4-((3-methylquinolin-6-yl)oxy)phenyl)-3,5-dioxo-2,3,4,5-tetrahydro-1,2,4-triazine-6-carbonitrile], for which the values for the THRβ-Selectivity on THR-β/RXR-α and on TR beta-LBD were 7.1 and 68.1, respectively.

Consider `Cn1cnc2cnc(Oc3c(Cl)cc(NC(=O)c4noc(=O)[nH]4)cc3Cl)cc21` [Example 11, N-(3,5-dichloro-4-((1-methyl-1H-imidazo[4,5-c]pyridin-6-yl)oxy)phenyl)-5-oxo-4,5-dihydro-1,2,4-oxadiazole-3-carboxamide], for which the THRβ-Selectivity at THR-β/RXR-α is reported as 10.4; at TR beta-LBD it was greater than 30.5.

On to `Cc1n[nH]c2ncc(Oc3c(Cl)cc(-n4nc(C#N)c(=O)[nH]c4=O)cc3Cl)cc12` [Example 7, 2-(3,5-dichloro-4-((3-methyl-1H-pyrazolo[3,4-b]pyridin-5-yl)oxy)phenyl)-3,5-dioxo-2,3,4,5-tetrahydro-1,2,4-triazine-6-carbonitrile], for which the THRβ-Selectivity is 9.7 on THR-β/RXR-α and 9.5 on TR beta-LBD.

For the compound `O=C(Nc1cc(Cl)c(Oc2ccc3nc(C4CC4)ccc3c2)c(Cl)c1)c1noc(=O)[nH]1` [Example 24, N-(3,5-dichloro-4-((2-cyclopropylquinolin-6-yl)oxy)phenyl)-5-oxo-4,5-dihydro-1,2,4-oxadiazole-3-carboxamide], the figures for the THRβ-Selectivity on THR-β/RXR-α and on TR beta-LBD were 4.8 and 8.1, respectively.

For `Cc1n[nH]c2ccc(Oc3c(Cl)cc(NC(=O)c4noc(=O)[nH]4)cc3Cl)cc12` [Example 4, N-(3,5-dichloro-4-((3-methyl-1H-indazol-5-yl)oxy)phenyl)-5-oxo-4,5-dihydro-1,2,4-oxadiazole-3-carboxamide], the figures for the THRβ-Selectivity on THR-β/RXR-α and at TR beta-LBD were 6.6 and 18.8, respectively.

Take `O=C(Nc1cc(Cl)c(Oc2ccc3ncn(C4CC4)c3c2)c(Cl)c1)c1noc(=O)[nH]1` [Example 22, N-(3,5-dichloro-4-((1-cyclopropyl-1H-benzo[d]imidazol-6-yl)oxy)phenyl)-5-oxo-4,5-dihydro-1,2,4-oxadiazole-3-carboxamide]: the values for the THRβ-Selectivity at THR-β/RXR-α and at TR beta-LBD were 5.9 and greater than 253.0, respectively.

Consider `CC(C)n1cnc2ccc(Oc3c(Cl)cc(-n4nc(C#N)c(=O)[nH]c4=O)cc3Cl)cc21` [Example 21, 2-(3,5-dichloro-4-((1-isopropyl-1H-benzo[d]imidazol-6-yl)oxy)phenyl)-3,5-dioxo-2,3,4,5-tetrahydro-1,2,4-triazine-6-carbonitrile], for which the THRβ-Selectivity on THR-β/RXR-α worked out at 10.9; at TR beta-LBD, 12.9.

For `N#Cc1nn(-c2cc(Cl)c(Oc3ccc4ncn(C5CC5)c4c3)c(Cl)c2)c(=O)[nH]c1=O` [Example 23, 2-(3,5-dichloro-4-((1-cyclopropyl-1H-benzo[d]imidazol-6-yl)oxy)phenyl)-3,5-dioxo-2,3,4,5-tetrahydro-1,2,4-triazine-6-carbonitrile], the THRβ-Selectivity was 5.7 at THR-β/RXR-α and 20.2 on TR beta-LBD.

Take `Cc1n[nH]c2ccc(Oc3c(Cl)cc(-c4n[nH]c(=O)[nH]c4=O)cc3Cl)cc12` [Example 5, 6-(3,5-dichloro-4-((3-methyl-1H-indazol-5-yl)oxy)phenyl)-1,2,4-triazine-3,5(2H,4H)-dione]: the THRβ-Selectivity is given as 3.1 at THR-β/RXR-α and 15.6 at TR beta-LBD.

Consider `Cc1ccnc2ccc(Oc3c(Cl)cc(NC(=O)c4noc(=O)[nH]4)cc3Cl)cc12` [Example 25, N-(3,5-dichloro-4-((4-methylquinolin-6-yl)oxy)phenyl)-5-oxo-4,5-dihydro-1,2,4-oxadiazole-3-carboxamide], for which the figures for the THRβ-Selectivity on THR-β/RXR-α and at TR beta-LBD were 5.7 and 1286.7, respectively.
